Assay results as given in PMC10913730, “Antimicrobial activity of a natural compound and analogs against multi-drug-resistant Gram-positive pathogens” (Microbiology Spectrum, 2024).
In brackets after ≈: the same amount, converted by molar mass. Read-outs that look alike come from different tables or passages of the source.

Assays:
Enterococcus faecalis = assay: MIC/MBC against Enterococcus faecalis; assay type: cell-based
Streptococcus pyogenes = assay: MIC/MBC against Streptococcus pyogenes; assay type: cell-based; details: for MBC: Streptococcus pyogenes
MRSA isolate TCH 1516 [1] = assay: Single-step resistance development; assay type: cell-based, Staphylococcus aureus; details: TCH 1516 stationary phase; C59 as low as 2× MIC, vancomycin up to 8× MIC
Experimental: For the single-step study, bacteria were grown to the stationary phase as described above. Bacteria at a concentration of 1E9 CFU were then plated onto C59 and vancomycin-loaded plates containing 1×, 2×, 4×, and 8× MIC concentrations of the therapeutic agents with 1% DMSO. Bacteria were incubated at 37°C for 48 hours, and colony counts were enumerated to calculate the frequency of resistance development, as described in the literature ([45], [46]).

[2] = test system: erythrocytes (sheep blood); assay: Hemolytic activity against sheep erythrocytes
[3] = test system: MRSA isolate SAD05 biofilms; assay type: cell-based, Staphylococcus aureus; details: 72-hour biofilms of SAD05, MBEC assay
Pseudomonas aeruginosa = assay: MIC against Pseudomonas aeruginosa; assay type: cell-based
[4] = test system: human bronchial epithelial (16HBE) cells; assay: alamarBlue cell viability assay, 16HBE; details: 24-hour incubation, non-linear regression
[5] = test system: human dermal fibroblast (HDF) cells; assay: alamarBlue cell viability assay, HDF; details: HDFs, 24-hour incubation, non-linear regression
MRSA isolates = assay: MIC/MBC, CLSI broth microdilution, MRSA isolates; assay type: cell-based, Staphylococcus aureus; details: for change of MIC and MBC with the reduction in pH: six MRSA isolates, pH lowered to 5.5
[6] = pH and Ka of 10-g/L aqueous solutions (pH meter); assay type: physicochemical; details: 10-g/L solution in distilled, deionized water; for pH of solution: room temperature
MRSA isolate TCH 1516 [7] = assay: Resistance acquisition during serial passage; assay type: cell-based, Staphylococcus aureus; details: serial passage, after 21 days
Experimental: MRSA isolate TCH 1516 was grown to the stationary phase (OD650 = 1.0) in 10 mL of MH broth. […] The second highest drug concentration resulting in bacterial growth (OD650 >1.0) was used as the inoculum after a 1:1,000 dilution for subsequent steps, every 24 hours, for up to 21 days.

[8] = test system: MRSA isolates SA LL 06 and TCH 1516; assay: Kill kinetics against stationary-phase MRSA; assay type: cell-based, Staphylococcus aureus; details: shaking, 37°C
Experimental: MRSA isolates, TCH 1516 and SA LL 06, were grown to the stationary phase, and the rate of bacterial killing was determined. Frozen bacterial stocks were streaked onto TSA plates and grown overnight. A single colony was selected and incubated overnight in LB broth at 37°C with constant orbital shaking at 200 RPM. Next, bacterial suspension was washed twice with 150 mM sodium chloride and resuspended in MH broth at a concentration of 1.2E9 CFU/mL. […] Glass tubes containing 5 mL of bacteria and drug solutions were grown in a shaking incubator at 37°C. At 0, 4, 8, and 24 hours, bacterial suspensions were collected, serially diluted, and plated onto a blood agar plate. Bacteria were allowed to grow for 24 hours and were enumerated to yield colony-forming units per milliliter.

[9] = test system: Staphylococcus epidermidis isolates; assay: microbe, parasite or virus in culture; assay type: cell-based
[10] = Aqueous solubility of compounds reconstituted at 10 mg/mL in water; details: 10 mg/mL in distilled deionized water
[11] = ATCC49532, Enterococcus faecalis (ATCC 49532)
[12] = ATCC51575, Enterococcus faecalis (ATCC 51575)
[13] = Streptococcus pyogenes (NR1575)
[14] = Staphylococcus aureus, MRSA, pH 5.5, MRSA 0606, pH 5.5
[15] = Staphylococcus aureus, MRSA, pH 5.5, MRSA 0608, pH 5.5
[16] = Staphylococcus aureus, MRSA, pH 5.5, MRSA 0634, pH 5.5
[17] = Staphylococcus aureus, MRSA, pH 5.5, MRSA 0641, pH 5.5
[18] = Staphylococcus aureus, MRSA, pH 5.5, MRSA 0646, pH 5.5
[19] = Staphylococcus aureus, MRSA, pH 5.5, TCH 1516, pH 5.5
[20] = Staphylococcus aureus, MRSA, pH 6.5, MRSA 0606, pH 6.5
[21] = Staphylococcus aureus, MRSA, pH 6.5, MRSA 0608, pH 6.5
[22] = Staphylococcus aureus, MRSA, pH 6.5, MRSA 0634, pH 6.5
[23] = Staphylococcus aureus, MRSA, pH 6.5, MRSA 0641, pH 6.5
[24] = Staphylococcus aureus, MRSA, pH 6.5, MRSA 0646, pH 6.5
[25] = Staphylococcus aureus, MRSA, pH 6.5, TCH 1516, pH 6.5
[26] = Staphylococcus aureus, MRSA, pH 7.4, MRSA 0606, pH 7.4
[27] = Staphylococcus aureus, MRSA, pH 7.4, MRSA 0608, pH 7.4
[28] = Staphylococcus aureus, MRSA, pH 7.4, MRSA 0634, pH 7.4
[29] = Staphylococcus aureus, MRSA, pH 7.4, MRSA 0641, pH 7.4
[30] = Staphylococcus aureus, MRSA, pH 7.4, MRSA 0646, pH 7.4
[31] = Staphylococcus aureus, MRSA, pH 7.4, TCH 1516, pH 7.4
[32] = 21 Staphylococcus epidermidis isolates

For Oc1c(Cl)cc(Cl)cc1-c1cc(Cl)cc(Cl)c1O [C59, 3,3′,5,5′-tetrachloro-[1,1′-biphenyl]−2,2′-diol], the MBC (Enterococcus faecalis; [11]) was 16 µg/mL (≈ 49.4 µM), the MIC (Enterococcus faecalis; [11]) was 8 µg/mL (≈ 24.7 µM) and the MBC (Enterococcus faecalis; [12]) was 16 µg/mL (≈ 49.4 µM). The MIC (Enterococcus faecalis; [12]) was 8 µg/mL (≈ 24.7 µM), the MIC (Streptococcus pyogenes; Streptococcus pyogenes (NR1571), read-out: MIC) was 6 µg/mL (≈ 18.5 µM) and the MIC (Streptococcus pyogenes; [13]) was 6 µg/mL (≈ 18.5 µM). The MBC (Streptococcus pyogenes; Streptococcus pyogenes (NR1571)) was 24 µg/mL (≈ 74.1 µM), the MBC (Streptococcus pyogenes; [13]) was 16 µg/mL (≈ 49.4 µM) and the “growth on drug-loaded plates” value (MRSA isolate TCH 1516 [1]) was “No growth”. The “concentrations at which erythrocytes were not lysed” value ([2]; 1% sheep blood, 1-hour incubation) was “up to 24 µg/mL”, the “LD50 relative to MIC90” value ([2]; higher than MIC90, stated in the hemolysis discussion, cell type not named) was 24 fold and the “concentration that completely eradicated biofilms” value [3] was 16 µg/mL. The MIC (Pseudomonas aeruginosa; Pseudomonas aeruginosa (PAM57-15)) was over 32 µg/mL, the MIC (Pseudomonas aeruginosa; Pseudomonas aeruginosa (PAO1)) was over 32 µg/mL and the LD50 [4] was 40.2 µg/mL. It also gave an LD50 [5] of 56.0 µg/mL, an MIC90 (MRSA isolates; Staphylococcus aureus, MRSA, 39 evaluated MRSA isolates, CLSI broth microdilution) of 2 µg/mL (≈ 6.17 µM) and an MIC (MRSA isolates; Staphylococcus aureus, MRSA, SA LL 06, as given for the kill kinetic assay) of 2 µg/mL (≈ 6.17 µM). For the same molecule, the MIC (MRSA isolates; Staphylococcus aureus, MRSA, TCH 1516, as given for the kill kinetic assay) was 2 µg/mL (≈ 6.17 µM), the MBC (MRSA isolates; [14]) was 0.5 µg/mL (≈ 1.54 µM) and the MIC (MRSA isolates; [14]) was 0.5 µg/mL (≈ 1.54 µM). The MBC (MRSA isolates; [15]) was 0.5 µg/mL (≈ 1.54 µM), the MIC (MRSA isolates; [15]) was 0.5 µg/mL (≈ 1.54 µM) and the MBC (MRSA isolates; [16]) was 0.5 µg/mL (≈ 1.54 µM). It also gave an MIC (MRSA isolates; [16]) of 0.5 µg/mL (≈ 1.54 µM), an MBC (MRSA isolates; [17]) of 0.5 µg/mL (≈ 1.54 µM) and an MIC (MRSA isolates; [17]) of 0.5 µg/mL (≈ 1.54 µM). It also gave an MBC (MRSA isolates; [18]) of 0.5 µg/mL (≈ 1.54 µM), an MIC (MRSA isolates; [18]) of 0.5 µg/mL (≈ 1.54 µM) and an MBC (MRSA isolates; [19]) of 0.5 µg/mL (≈ 1.54 µM). For the same molecule, the MIC (MRSA isolates; [19]) was 0.5 µg/mL (≈ 1.54 µM), the MBC (MRSA isolates; Staphylococcus aureus, MRSA, pH 5.5, read-out: Average MBC, average of six MRSA isolates, pH 5.5) was 0.5 µg/mL (≈ 1.54 µM) and the MIC (MRSA isolates; Staphylococcus aureus, MRSA, pH 5.5, read-out: Average MIC, average of six MRSA isolates, pH 5.5) was 0.5 µg/mL (≈ 1.54 µM). The MBC (MRSA isolates; [20]) was 6 µg/mL (≈ 18.5 µM), the MIC (MRSA isolates; [20]) was 1 µg/mL (≈ 3.09 µM) and the MBC (MRSA isolates; [21]) was 2 µg/mL (≈ 6.17 µM). It also gave an MIC (MRSA isolates; [21]) of 2 µg/mL (≈ 6.17 µM), an MBC (MRSA isolates; [22]) of 4 µg/mL (≈ 12.3 µM) and an MIC (MRSA isolates; [22]) of 1 µg/mL (≈ 3.09 µM). For the same molecule, the MBC (MRSA isolates; [23]) was 4 µg/mL (≈ 12.3 µM), the MIC (MRSA isolates; [23]) was 1 µg/mL (≈ 3.09 µM) and the MBC (MRSA isolates; [24]) was 4 µg/mL (≈ 12.3 µM). The MIC (MRSA isolates; [24]) was 1 µg/mL (≈ 3.09 µM), the MBC (MRSA isolates; [25]) was 4 µg/mL (≈ 12.3 µM) and the MIC (MRSA isolates; [25]) was 1 µg/mL (≈ 3.09 µM). It also gave an MBC (MRSA isolates; Staphylococcus aureus, MRSA, pH 6.5, read-out: Average MBC, average of six MRSA isolates, pH 6.5) of 4 µg/mL (≈ 12.3 µM), an MIC (MRSA isolates; Staphylococcus aureus, MRSA, pH 6.5, read-out: Average MIC, average of six MRSA isolates, pH 6.5) of 1.2 µg/mL (≈ 3.7 µM) and an MBC (MRSA isolates; [26]) of 4 µg/mL (≈ 12.3 µM). For the same molecule, the MIC (MRSA isolates; [26]) was 2 µg/mL (≈ 6.17 µM), the MBC (MRSA isolates; [27]) was 6 µg/mL (≈ 18.5 µM) and the MIC (MRSA isolates; [27]) was 2 µg/mL (≈ 6.17 µM). The MBC (MRSA isolates; [28]) was 8 µg/mL (≈ 24.7 µM), the MIC (MRSA isolates; [28]) was 2 µg/mL (≈ 6.17 µM) and the MBC (MRSA isolates; [29]) was 8 µg/mL (≈ 24.7 µM). It also gave an MIC (MRSA isolates; [29]) of 2 µg/mL (≈ 6.17 µM), an MBC (MRSA isolates; [30]) of 4 µg/mL (≈ 12.3 µM) and an MIC (MRSA isolates; [30]) of 2 µg/mL (≈ 6.17 µM). For the same molecule, the MBC (MRSA isolates; [31]) was 4 µg/mL (≈ 12.3 µM), the MIC (MRSA isolates; [31]) was 2 µg/mL (≈ 6.17 µM) and the MBC (MRSA isolates; Staphylococcus aureus, MRSA, pH 7.4, read-out: Average MBC, average of six MRSA isolates, pH 7.4) was 5.7 µg/mL (≈ 17.6 µM). For the same molecule, the MIC (MRSA isolates; Staphylococcus aureus, MRSA, pH 7.4, read-out: Average MIC, average of six MRSA isolates, pH 7.4) was 2 µg/mL (≈ 6.17 µM), the MBC (MRSA isolates; Staphylococcus aureus, MRSA, read-out: MBC90, 39 evaluated MRSA isolates, CLSI broth microdilution) was 6 µg/mL (≈ 18.5 µM) and the “change of MIC and MBC with the reduction in pH” value (MRSA isolates) was “decreased as much as fourfold”. The “acid dissociation constant (Ka)” value [6] was 6.18 × 10^−19, the pH of solution [6] was 9.86 and the “increase in MIC” value (MRSA isolate TCH 1516 [7]) was “no change in MIC”. For the same molecule, the “bacterial killing after 24 hours” value ([8]; stationary-phase SA LL 06, C59 at 1× and 2× MIC) was “complete bacterial eradication”, the “bacterial killing after 24 hours” value ([8]; stationary-phase TCH 1516) was “did not result in complete bacterial killing” and the MBC range [9, 32] was 6 to 12 µg/mL. For the same molecule, the MIC range [9, 32] was 2 to 4 µg/mL, the MIC90 ([9]; Staphylococcus epidermidis) was 4 µg/mL (≈ 12.3 µM) and the MBC ([9]; Staphylococcus epidermidis, read-out: MBC90) was 12 µg/mL (≈ 37 µM).

With CC(=O)Oc1c(Cl)cc(Cl)cc1-c1cc(Cl)cc(Cl)c1OC(C)=O [C59Ac] the aqueous solubility [10] was “moderate aqueous solubility”, the MBC (MRSA isolates; MRSA 0606, pH 7.4) was 8 µg/mL (≈ 19.6 µM) and the MIC (MRSA isolates; MRSA 0606, pH 7.4) was 4 µg/mL (≈ 9.8 µM). The MBC (MRSA isolates; MRSA 0608, pH 7.4) was 12 µg/mL (≈ 29.4 µM), the MIC (MRSA isolates; MRSA 0608, pH 7.4) was 4 µg/mL (≈ 9.8 µM) and the MBC (MRSA isolates; MRSA 0634, pH 7.4) was 4 µg/mL (≈ 9.8 µM). The MIC (MRSA isolates; MRSA 0634, pH 7.4) was 4 µg/mL (≈ 9.8 µM), the MBC (MRSA isolates; MRSA 0641, pH 7.4) was 12 µg/mL (≈ 29.4 µM) and the MIC (MRSA isolates; MRSA 0641, pH 7.4) was 4 µg/mL (≈ 9.8 µM). The MBC (MRSA isolates; MRSA 0646, pH 7.4) was 8 µg/mL (≈ 19.6 µM), the MIC (MRSA isolates; MRSA 0646, pH 7.4) was 4 µg/mL (≈ 9.8 µM) and the MBC (MRSA isolates; TCH 1516, pH 7.4) was 4 µg/mL (≈ 9.8 µM). For the same molecule, the MIC (MRSA isolates; TCH 1516, pH 7.4) was 4 µg/mL (≈ 9.8 µM), the “change of MIC and MBC with the reduction in pH” value (MRSA isolates) was “remained unchanged” and the “acid dissociation constant (Ka)” value [6] was 2.45 × 10^−12. The pH of solution [6] was 6.61.
